Literature values in patent US20260240855A1 (priority 2023, published 2026).

Test system: extracellular signal-regulated kinase (ERK)
Settings: preclinical studies

C=CC(=O)N1CCN(c2nc(=O)n(-c3c(C)ccnc3C(C)C)c3nc(-c4c(O)cccc4F)c(F)cc23)[C@@H](C)C1 (atropisomer, axis not shown; (M)) [Sotorasib, 6-fluoro-7-(2-fluoro-6-hydroxyphenyl)-(1M)-1-[4-methyl-2-(propan-2-yl)pyridin-3-yl]-4-[(2S)-2-methyl-4-(prop-2-enoyl)piperazin-1-yl]pyrido[2,3-d]pyrimidin-2(1H)-one]
phosphorylation of extracellular signal-regulated kinase (ERK): inhibited nearly all detectable phosphorylation
